Test results taken from patent publication US9913846B2, “Combination of a PI3 kinase inhibitor with pacitaxel for use in the treatment or prevention of a cancer of the head and neck” (NOVARTIS AG, priority 2013, dated 2018).

Tests used:
UMSCC11A = experiment: Cancer cell growth inhibition, cell counting after 5 days; format: cell-based; conditions: 120 h
Protocol: (§1) Data was compared with untreated controls. […] Experiments were carried out in duplicate. The table below details the results.

UMSCC1 = experiment: as above; format: cell-based; conditions: Homo sapiens, 120 h
Protocol: as §1

UMSCC5 = experiment: as above; format: cell-based; conditions: UM-SCC-5, 120 h
Protocol: as §1

UPCISCC153 = experiment: as above; format: cell-based; conditions: 120 h
Protocol: as §1

[1] = system: head and neck cancer cell lines; experiment: Sensitivity of head and neck cancer cell line panels to Compound A (FIG. 1); format: cell-based; conditions: majority of the cell lines of two independently tested panels
From the text: (§2) (Red=KRAS mutant=UMSCC-74A. Yellow=PI3KCA mutant=CAL33).

[2] = system: pAKT in FaDu xenograft (Hypopharynx squamous cell carcinoma); experiment: pAKT in tumor tissue of FaDu xenograft (FIG. 2); format: in vivo; conditions: Compound A at 30 mg daily
[3] = Concentration delivered to patients; format: in vivo, human; conditions: patients treated at 100 mg daily; expected
From the text: as §2

Row | SMILES | inhibition at 0.001 µg/mL (UMSCC11A; paclitaxel 1 ng/ml) | inhibition at 0.001 µg/mL (UMSCC1; paclitaxel 1 ng/ml) | inhibition at 0.001 µg/mL (UMSCC5; paclitaxel 1 ng/ml) | inhibition at 0.001 µg/mL (UPCISCC153; paclitaxel 1 ng/ml) | inhibition at 1 µM (UMSCC11A; Compound A 1 μM) | inhibition at 1 µM (UMSCC1; Compound A 1 μM) | inhibition at 1 µM (UMSCC5; Compound A 1 μM) | inhibition at 1 µM (UPCISCC153; Compound A 1 μM) | IC50 [1] | pAKT in tumor tissue [2] | concentration delivered to patients [3]
1 | CC(=O)O[C@H]1C(=O)[C@@]2(C)[C@H]([C@H](OC(=O)c3ccccc3)[C@]3(O)C[C@H](OC(=O)[C@H](O)[C@@H](NC(=O)c4ccccc4)c4ccccc4)C(C)=C1C3(C)C)[C@]1(OC(C)=O)CO[C@@H]1C[C@@H]2O [Paclitaxel, 5β,20-Epoxy1,2a,4,7β, 10β, 13a-hexahydroxytax-11-en-9-one 4, 10,-diacetate 2-benzoate 13-ester with (2R, 3S)—N-benzoyl-3-phenylisoserine, reference compound] | 3.13% | 4.6% | 7.6% | 0% |  |  |  |  |  |  | 
2 | Nc1cc(C(F)(F)F)c(-c2cc(N3CCOCC3)nc(N3CCOCC3)n2)cn1 [Compound A, 5-(2,6-di-morpholin-4-yl-pyrimidin-4-yl)-4-trifluoromethyl-pyridin-2-ylamine] |  |  |  |  | 21.9% | 21.2% | 28% | 15% | < 1000 nM | inhibition of pAKT | around 1 μM
